{"source": "paper PMC5630639", "about": "(Scientific Reports, 2017)", "key": {"MGC-803 cells [1]": {"system": "MGC-803 cells", "test": "CCK-8 proliferation assay, MGC-803", "type": "cell-based, human", "conditions": "Homo sapiens, MGC-803; 48 h, CCK-8, mean ± SD", "procedure": "All synthesized β-lactam-azide derivatives were evaluated for their antiproliferative activity against three cancer cell lines (MGC-803, MCF-7, A549) using CCK-8 proliferation assay. The well-known anticancer drug CA-4P was used as a control[36],[37].\nMGC-803 cell line was obtained from the Chinese Academy of Sciences (Shanghai, China). MCF-7 and A549 were from the National Cell Center, China. MGC-803 cells were cultured in DMEM culture medium (DMEM, Biological Industries, Kibbutz Beit Haemek, Israel). A549 and MCF-7 cells were cultured in 1640 medium (1640, Biological Industries, Kibbutz Beit Haemek, Israel). All medium were supplemented with 10% fetal bovine serum, 100 U/ml penicillin (North China Pharmaceutical group Co.), and 100 µg/ml streptomycin (North China Pharmaceutical group Co.). All cells were cultured at 37 °C in a humidified incubator containing 5% CO2.\nSynthesized analogues used in the study were dissolved in 100% cell culture grade DMSO and the final concentration of DMSO as <0.1% for testing on cancer cell lines. Cytotoxicity assays were performed on the human gastric carcinoma cell line MGC-803, the human mammary carcinoma cell line MCF-7, the human lung carcinoma cell line A549. Cells (3500–5000/well) were seeded into 96-well plates in 100 µL of culture medium. The cells were treated in triplicate with a gradient concentration of testing compounds and incubated at 37 °C, 5% CO2 for 48 h. For all cell lines, CCK-8 assay was performed to measure cytotoxic effects. The absorbance was measured using a microplate reader (BioTek Instrument, Inc. Vermont, USA) with a test wavelength of 450 nm. The absorbance levels were corrected against untreated control absorbance values. All experiments were performed in triplicate and SPSS17.0 was used for data analysis to obtain IC50 values."}, "[2]": {"system": "colchicine-binding site of β-tubulin", "test": "EBI competition assay", "type": "cell-based, human", "conditions": "preincubation 0.25 and 5 μM, 2 h; EBI 100 μM", "description": "Six-well plates were seeded with MGC-803 cells at 5 × 10^5 cells per well. […] After 2 h, the cells were harvested and cell extracts were prepared for Western blot analysis. 20 μg of proteins was subjected to gel electrophoresis using 10% polyacrylamide gels. The proteins were transferred onto PVDF membranes, then blocked by 5% nonfatmilk for 1 h, and subsequently incubated with anti-β-tubulin antibody for 16 h at 4 °C. Next, the membranes were washed extensively and immunoreactive proteins were finally detected by chemiluminescence."}, "tubulin": {"system": "tubulin", "test": "In vitro tubulin polymerization assay", "type": "biochemical", "conditions": "5.6 mg/ml tubulin, absorbance 340 nm, 37 °C; read-out: tubulin polymerization inhibition IC50", "procedure": "The in vitro tubulin polymerization inhibitory activity of 28 was then evaluated. Purified and unpolymerized tubulin was incubated with 28 at indicated concentrations, and tubulin polymerization was measured by the method originally described by D. Bone et al.[46].\nAn amount of 5.6 mg/ml tubulin was resuspended in PEM buffer [80 mM PIPES (pH 6.9), 1 mM EGTA, 0.5 mM MgCl2, 1 mM […], 10.2% (v/v) glycerol] and then was preincubated with compound 28 or vehicle DMSO on ice. The reaction was monitored by a spectrophotometer in absorbance at 340 nm at 37 °C every 5 min. The final concentrations of 28 were listed as follows: 0, 1, 2, and 4 µM."}, "MGC-803 cells [3]": {"system": "MGC-803 cells", "test": "Transwell cell migration assay", "type": "cell-based, human", "conditions": "24 h (control 29.4)", "procedure": "(§1) In a transwell test, the average numbers of migrated cells in fields of control, 0.1 and 0.2 μM 28 treated MGC-803 cells were 29.4, 22.4 and 16.6, respectively (Fig. 6B and C). Based on the results from these tests, we next examined the protein expression of EMT-related makers such as E-cadherenin, N-cadherenin, ZO-1 and Vementin[55].\nThe test was performed in a transwell plate (Corning). MGC-803 cells were added to the upper chamber of a transwell plate. Control and different concentrations of 28 solutions were added to both upper and bottom chambers. Then the transwell plate was cultured at 37 °C in a humidified incubator containing 5% CO2 for 24 h. The next day, all contents in the upper chamber were removed and wiped by cotton buds. Alcohol was used to fix, and the crystal violet was used to stain the transwell for 30 min. After washed by PBS the cell chambers were observed and photos taken. The cell number of the migrated cells through the transwell was calculated by counting 5 visual fields of each group (P < 0.05)[55],[56]."}, "[4]": {"system": "interphase microtubules in MGC-803 cells", "test": "Immunofluorescence staining of tubulin", "type": "cell-based, human", "conditions": "24 h", "procedure": "As the microtubule system plays a vital role in the maintenance of cell shape and basic cellular functions, an immunofluorescence staining assay was performed to study whether compound 28 could disrupt the microtubule dynamics in living cells.\nCell climbing slices were sterilized and placed on the bottom of a 24-well plate for 24 h before MGC-803 cells were incubated in DMSO, different concentrations of 28 or CA-4P solutions were added. The next day the cell climbing slices were fixed by 4% paraformaldehyde for 15 min after washed by PBS for 3 times. 0.5% Triton-X-100 was added and shaked for 20 min. 0.1% BSA was used to block for 30 min and then removed. The cell climbing slices were added α-tubulin antibody (1:100) and incubated overnight at 4 °C in humid box. On the third day the humid box was taken out and balanced at 37 °C for 30 min. The cell climbing slices were washed by PBST for 3 times for each of 3 minutes and coated with FITC antibody (1:500) in a dark place for 1 h at room temperature. DAPI was used to re-stained for 5 min and then removed. The cell climbing slices were sealing by an anti-fluorescence quenching agent and images collected by Laser scanning confocal microscope (Nikon, Japan)."}, "MGC-803 cells [5]": {"system": "MGC-803 cells", "test": "Western blot of EMT-related markers", "type": "cell-based, human", "procedure": "as §1"}, "MGC-803 cells [6]": {"system": "MGC-803 cells", "test": "Western blotting of apoptosis-related proteins", "type": "cell-based, human", "conditions": "concentration-dependent", "procedure": "We next evaluated whether 28 induces apoptosis in MGC-803 cells by flow cytometry analysis of propidium iodide (PI) and Annexin V stained cells. […] When MGC-803 cells were incubated with 28 at 0.1, 0.2, and 0.3 μM for 24 h, the percentages of early apoptotic cells were 12.4%, 40.5%, and 49.7%, respectively and those of late apoptotic cells 2.1%, 10.1%, and 9.4%, respectively (Fig. 4A). Bcl-2 family proteins were crucial components of mitochondrial stress-induced cellular apoptosis. Thus, the expression of apoptosis-related proteins was also determined.\nAn Annexin V-FITC/PI kit (KeyGEN BioTECH, Nanjing, China) was used to detect apoptosis. Cells were seeded in 6-well plates and treated with 0, 0.1, 0.2 and 0.3 µM of 28 for 24 h. Then MGC-803 cells were collected and suspended in binding buffer containing Annexin V-FITC (0.5 mg/mL) and PI (0.5 mg/mL) and incubated in dark for 20 min and analyzed by flow cytometry (Becton, Dickinson and Company, NJ). The apoptosis related proteins of western blot analysis were conducted according to our previously reported method[31],[32]."}}}
{"smiles": "COc1cc(N2C(=O)[C@H](c3cccs3)[C@H]2c2cccc(N=[N+]=[N-])c2)cc(OC)c1OC", "note": "(relative stereo) [Compound 28, trans-4-(3-azidophenyl)-3-(thiophen-2-yl)-1-(3,4,5-trimethoxyphenyl)azetidin-2-one]", "values": [{"measurement": "IC50", "setting": "MGC-803 cells [1]", "value": "106 ± 1", "unit": "nM"}, {"measurement": "formation of the EBI: β-tubulin adduct", "setting": "[2]", "value": "dose-dependently prevented the formation of the EBI: β-tubulin adduct"}, {"measurement": "IC50", "setting": "tubulin", "value": 2260, "unit": "nM"}, {"measurement": "average number of migrated cells in fields", "setting": "MGC-803 cells [3]; 0.1 μM", "value": 22.4}, {"measurement": "average number of migrated cells in fields", "setting": "MGC-803 cells [3]; 0.2 μM", "value": 16.6}, {"measurement": "depolymerization of interphase microtubules", "setting": "[4]; 0.075 μM", "value": "moderately depolymerized"}, {"measurement": "depolymerization of interphase microtubules", "setting": "[4]; 0.3 μM", "value": "much stronger"}, {"measurement": "expression of E-cadherin and ZO-1", "setting": "MGC-803 cells [5]", "value": "up-regulated"}, {"measurement": "expression of N-cadherin and vimentin", "setting": "MGC-803 cells [5]", "value": "down-regulated"}, {"measurement": "expression of Bcl-2", "setting": "MGC-803 cells [6]", "value": "decreased"}, {"measurement": "expression of cleaved caspase-3, caspase-9 and PARP", "setting": "MGC-803 cells [6]", "value": "increased"}, {"measurement": "protein expression of BAX", "setting": "MGC-803 cells [6]", "value": "increased"}]}
